Key:
blackgrass = test: Test B pre/postemergence blackgrass; assay type: in vivo, Alopecurus myosuroides
Method in brief: (§1)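 Herbicidal effect was estimated by eye on a ten-point control scale after plants spent twelve to sixteen days in a greenhouse following soil or foliar treatment. Foliar sprays targeted plants at one to four leaves; all doses were formulated in a non-phytotoxic solvent with surfactant.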

wild oat = test: Test B pre/postemergence wild oat; assay type: in vivo, Avena fatua; conditions: for Wild oats plant response rating: scale of 0 to 10 where 0 is no effect and 10 is complete control
Method in brief: as §1

rice = test: Test B flood test rice; assay type: in vivo, Oryza sativa; conditions: for Plant response rating, Rice (0 to 10 scale, 0 is no effect, 10 is complete control) / Rice plant response rating (0 to 10 scale, 0 is no effect, 10 is complete control): visual evaluation after twelve to sixteen days; for Rice plant response rating (0 to 10 scale, 0 is no effect, 10 is complete control): under heading Pre-emergence
Method in brief: (§2)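 Each value is a visual injury score relative to controls, with 10 meaning complete control and 0 no effect. Evaluation took place twelve to sixteen days after the 2-leaf-stage plants were treated and kept in the greenhouse.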

smallflower flatsedge = test: Test B flood test smallflower flatsedge; assay type: in vivo, Cyperus difformis; conditions: for Plant response rating, S. Flatsedge (0 to 10 scale, 0 is no effect, 10 is complete control) / S. Flatsedge plant response rating (0 to 10 scale, 0 is no effect, 10 is complete control): visual evaluation after twelve to sixteen days; for S. Flatsedge plant response rating (0 to 10 scale, 0 is no effect, 10 is complete control): under heading Pre-emergence
Method in brief: as §2

bamyardgrass = test: Test B flood test barnyardgrass; assay type: in vivo, Echinochloa crus-galli; conditions: for Plant response rating, Barnyardgrass (0 to 10 scale, 0 is no effect, 10 is complete control) / Barnyardgrass plant response rating (0 to 10 scale, 0 is no effect, 10 is complete control): visual evaluation after twelve to sixteen days; for Barnyardgrass plant response rating (0 to 10 scale, 0 is no effect, 10 is complete control): under heading Pre-emergence
Method in brief: as §2

[1] = Postemergence, Rate 125 g/ha, scale 0 to 10, 0 is no effect, 10 is complete control
[2] = Preemergence, Rate 62 g/ha, scale 0 to 10 (0 no effect, 10 complete control)
[3] = Preemergence, Rate 250 g/ha, scale of 0 to 10 where 0 is no effect and 10 is complete control
[4] = Preemergence, Rate 500 g/ha, scale of 0 to 10 where 0 is no effect and 10 is complete control
[5] = Rate 62 g/ha, Postemergence, scale of 0 to 10 where 0 is no effect and 10 is complete control
[6] = Rate 500 g/ha, Postemergence, scale 0 to 10, 0 no effect, 10 complete control
[7] = Postemergence (flood test), Rate 125 g/ha, scale 0 to 10, 0 is no effect, 10 is complete control
[8] = Rate 62 g/ha, Postemergence (flood test species), scale of 0 to 10 where 0 is no effect and 10 is complete control
[9] = Rate 500 g/ha, listed under Postemergence (flood test species), scale 0 to 10, 0 no effect, 10 complete control
[10] = Postemergence, Rate 250 g/ha, scale 0 to 10, 0 is no effect, 10 is complete control
[11] = Rate 62 g/ha, flood test species, Pre-emergence
[12] = Rate 125 g/ha, flood test species
[13] = Rate 250 g/ha, Pre-emergence, flood-test species, scale 0 to 10, 0 is no effect, 10 is complete control
[14] = Rate 500 g/ha, Pre-emergence, flood test species, scale 0 to 10 (0 no effect, 10 complete control)

Structure (SMILES)	Plant response rating, Blackgrass (blackgrass; [1])	Plant response rating, Blackgrass (blackgrass; [2])	Blackgrass plant response rating (0 to 10 scale) (blackgrass; Preemergence, Rate 125 g/ha)	Blackgrass plant response rating (blackgrass; [3])	Blackgrass plant response rating (blackgrass; [4])	Blackgrass plant response rating (blackgrass; [5])	Plant response rating, Wild oats (wild oat; [1])	Plant response rating, Wild oats (wild oat; [2])	Wild oats plant response rating (0 to 10 scale) (wild oat; Preemergence, Rate 125 g/ha)	Wild oats plant response rating (wild oat; Preemergence, Rate 250 g/ha)	Wild oats plant response rating (wild oat; Preemergence, Rate 500 g/ha)	Wild oats plant response rating (wild oat; Rate 62 g/ha, Postemergence)	Plant response rating, Wild oats (wild oat; [6])	Plant response rating, Blackgrass (blackgrass; [10])	Plant response rating, Wild oats (wild oat; [10])	Plant response rating, Rice (0 to 10 scale, 0 is no effect, 10 is complete control) (rice; [11])	Rice plant response rating (0 to 10 scale, 0 is no effect, 10 is complete control) (rice; [12])	Rice plant response rating (rice; [13])	Rice plant response rating (rice; [14])	Plant response rating, S. Flatsedge (0 to 10 scale, 0 is no effect, 10 is complete control) (smallflower flatsedge; [11])	further results
CC(C)C(C)n1c(=O)on(C(=O)N(c2ccccc2)C(C)C)c1=O (stereo not drawn) [Compound 355]	3	2	4	5	10	3	3	0	0	0	9	0	5								Plant response rating, Blackgrass (blackgrass; Rate 250 g/ha, Postemergence, scale of 0 to 10 where 0 is no effect and 10 is complete control): 6; Plant response rating, Blackgrass (blackgrass; [6]): 6; Plant response rating, Rice (rice; [7]): 0; Rice plant response rating (rice; [8]): 0; Plant response rating, Rice (rice; [9]): 0; Plant response rating, S. Flatsedge (smallflower flatsedge; [7]): 2; S. Flatsedge plant response rating (smallflower flatsedge; [8]): 0; Plant response rating, S. Flatsedge (smallflower flatsedge; [9]): 8; Plant response rating, Barnyardgrass (bamyardgrass; [7]): 8; Barnyardgrass plant response rating (bamyardgrass; [8]): 1; Plant response rating, Barnyardgrass (bamyardgrass; Rate 250 g/ha, Postemergence (flood test species), scale of 0 to 10 where 0 is no effect and 10 is complete control): 8; Plant response rating, Barnyardgrass (bamyardgrass; [9]): 8
Cc1nsc(Cl)c1Cn1c(=O)on(C(=O)N(c2ccccc2)C(C)C)c1=O [Compound 374]	0	0	2	5	6	0	0	0	0	0	0	0		0	0	0	0	0	0	0	S. Flatsedge plant response rating (0 to 10 scale, 0 is no effect, 10 is complete control) (smallflower flatsedge; [12]): 0; S. Flatsedge plant response rating (smallflower flatsedge; [13]): 0; S. Flatsedge plant response rating (smallflower flatsedge; [14]): 0; Plant response rating, Barnyardgrass (0 to 10 scale, 0 is no effect, 10 is complete control) (bamyardgrass; [11]): 0; Barnyardgrass plant response rating (0 to 10 scale, 0 is no effect, 10 is complete control) (bamyardgrass; [12]): 0; Barnyardgrass plant response rating (bamyardgrass; [13]): 0; Barnyardgrass plant response rating (bamyardgrass; [14]): 0
Cc1nnsc1Cn1c(=O)on(C(=O)N(c2ccccc2)C(C)C)c1=O [Compound 378]	0	0	0	0	0	0	0	0	0	0	0	0	0	0	0	0	0	0	0	0	S. Flatsedge plant response rating (0 to 10 scale, 0 is no effect, 10 is complete control) (smallflower flatsedge; [12]): 0; S. Flatsedge plant response rating (smallflower flatsedge; [13]): 0; S. Flatsedge plant response rating (smallflower flatsedge; [14]): 0; Plant response rating, Barnyardgrass (0 to 10 scale, 0 is no effect, 10 is complete control) (bamyardgrass; [11]): 0; Barnyardgrass plant response rating (0 to 10 scale, 0 is no effect, 10 is complete control) (bamyardgrass; [12]): 0; Barnyardgrass plant response rating (bamyardgrass; [13]): 0; Barnyardgrass plant response rating (bamyardgrass; [14]): 0

Reference: US6737383B1, “Herbicidal oxadiazolidines” (priority 1999, dated 2004)
